According to USRE41065E1, “Alkynl and azido-substituted 4-anilinoquinazolines” (Pfizer, Inc., priority 1995, dated 2009):

Assays:
[1] = system: another carcinoma which does not express the EGF receptor; details: athymic nude mice; background statement; cited from earlier work
[2] = system: transplanted human mammary carcinoma which expresses epidermal growth factor receptor tyrosine kinase (EGFR); details: athymic nude mice; background statement; cited from earlier work

Row | melting point | SMILES | also measured
1 | 98 to 113 °C (dec.) | C#Cc1cccc(Nc2ncnc3cc(OCCOC)c(OCCSCC(=O)O)cc23)c1.N | 
2 | 170 to 190 °C (dec.) | C#Cc1cc(Nc2ncnc3cc(OCCOC)c(OCCOC)cc23)ccc1F.Cl | 
3 | 170 to 185 °C (dec.) | C#Cc1ccc(C)c(Nc2ncnc3cc(OCCOC)c(OCCOC)cc23)c1.Cl | 
4 | 230 to 240 °C (dec.) | C#Cc1cccc(Nc2ncnc3cc(OCCCl)c(OCCCl)cc23)c1.Cl | 
5 | 215 to 225 °C (dec.) | C#Cc1cccc(Nc2ncnc3cc(OCCOC)c(OCCCl)cc23)c1.Cl | 
6 | 137 to 138 °C | C#Cc1cccc(Nc2ncnc3cc(OCCOC(C)=O)c(OCCOC(C)=O)cc23)c1 | 
7 | 215 to 218 °C (dec.) | C#Cc1cccc(Nc2ncnc3cc(OCCO)c(OCCO)cc23)c1.Cl | 
8 | 84 to 87 °C | C#Cc1cccc(Nc2ncnc3cc(OCCOC)c(OCCOC(C)=O)cc23)c1 | 
9 | 225 to 235 °C (dec.) | C#Cc1cccc(Nc2ncnc3cc(OCCCl)c(OCCOC)cc23)c1.Cl | 
10 | 134 to 135 °C | C#Cc1cccc(Nc2ncnc3cc(OCCOC(C)=O)c(OCCOC)cc23)c1 | 
11 | 130 to 142 °C (dec.) | C#Cc1cccc(Nc2ncnc3cc(OCCN4CCN(C)CC4)c(OCCOC)cc23)c1.Cl.Cl | 
12 | 220 to 227 °C (dec.) | C#Cc1cccc(Nc2ncnc3cc(OCCn4ccnc4)c(OCCOC)cc23)c1.Cl.Cl | 
13 | 85 to 100 °C (dec.) | C#Cc1cccc(Nc2ncnc3cc(OCCOC)c(OCCn4ccnc4)cc23)c1.Cl.Cl | 
14 | 115 to 130 °C (dec.) | C#Cc1cccc(Nc2ncnc3cc(OCCOC)c(OCCN4CCOCC4)cc23)c1.Cl.Cl | 
15 | 256 to 257 °C | C#Cc1cccc(Nc2ncnc3ccc(C)cc23)c1.Cl | 
16 | 95 to 103 °C (dec.) | C#Cc1cccc(Nc2ncnc3cc(OCCSC(C)C(=O)O)c(OCCOC)cc23)c1.N (stereo not shown) | 
17 | 135 to 150 °C (dec.) | C#Cc1cccc(Nc2ncnc3cc(OCCOC)c(O)cc23)c1.Cl | 
18 | 240 to 248 °C (dec.) | C#Cc1cccc(Nc2ncnc3cc(OCCn4ccc(=O)cc4)c(OCCOC)cc23)c1.Cl | 
19 | 155 to 168 °C (dec.) | C#Cc1cccc(Nc2ncnc3cc(OCCOC)c(OCCn4ccc(=O)cc4)cc23)c1.Cl | 
20 | 247 to 248 °C | C#Cc1cccc(Nc2ncnc3cc(OCCCC)c(OCCCC)cc23)c1.Cl | 
21 |  | O=CN/C=C/c1cc(O)ccc1O [erbstatin] | growth of carcinoma which does not express the EGF receptor [1]: without effect on the growth; growth of transplanted human mammary carcinoma expressing EGFR [2]: selectively attenuates the growth
